# pIC50: −log10 of the molar value.
# Target: T1, P2X7 receptor (Homo sapiens, UniProt Q99572)
# T1 construct: host or cells: THP-1 cells differentiated with LPS and IFN-γ
# T1 sequence (Q99572 1-595): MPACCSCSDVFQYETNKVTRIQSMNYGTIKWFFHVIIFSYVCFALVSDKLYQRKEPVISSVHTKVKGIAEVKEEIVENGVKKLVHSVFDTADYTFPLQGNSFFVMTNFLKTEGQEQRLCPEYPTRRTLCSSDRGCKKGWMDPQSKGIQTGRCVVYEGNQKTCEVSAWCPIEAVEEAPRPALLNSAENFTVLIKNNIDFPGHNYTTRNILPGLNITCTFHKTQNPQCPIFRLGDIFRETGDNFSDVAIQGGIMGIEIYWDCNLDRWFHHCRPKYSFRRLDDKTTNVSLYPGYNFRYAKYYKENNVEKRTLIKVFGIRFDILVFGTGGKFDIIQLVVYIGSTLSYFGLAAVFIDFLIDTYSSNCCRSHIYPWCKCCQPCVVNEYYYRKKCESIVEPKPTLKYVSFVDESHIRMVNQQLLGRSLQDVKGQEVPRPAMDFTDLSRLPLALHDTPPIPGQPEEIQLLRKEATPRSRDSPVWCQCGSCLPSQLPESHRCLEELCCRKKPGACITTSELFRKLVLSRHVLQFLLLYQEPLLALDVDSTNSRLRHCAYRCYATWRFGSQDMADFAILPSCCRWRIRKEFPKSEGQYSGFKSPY
# Assay: IL-1β release assay in differentiated THP-1 cells stimulated with BzATP (Example 9)
# Assay type: cell-based
# Design: inhibition: dose or concentration left out as unconfirmed
# Conditions: 0.1 μM compound; differentiated THP-1 cells, BzATP 250 uM; "*" class symbols; read-out: IL-1β % Inhib. ("*" symbols: at 0.1 μM)
# Method in brief: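 IC50 derived by four-parameter logistic fit of percent inhibition of IL-1β release, measured by ELISA after 45 min stimulation with 250 uM BzATP. Cells: THP-1 differentiated 16 h with 100 ng/mL LPS plus IFN-γ, LPS-primed 2 h, compound added 30 min beforehand.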
row,SMILES,inhibition at 0.1 µM [%]
1,Cc1cc(C(=O)Nc2cccc3c(=O)n(Cc4ccc(OC(F)(F)F)cc4)ccc23)ccc1F [Compound 1602],0 to 25
2,Cc1ccc(CCC(=O)Nc2cccc3c(=O)n(Cc4ccc(OC(F)(F)F)cc4)ccc23)c(C)c1 [Compound 1609],0 to 25

# Same assay, conditions: 0.1 μM compound; differentiated THP-1 cells, BzATP 250 uM; '*' class symbols; read-out: IL-1β % Inhib. (asterisk classes, 0.1 μM)
row,SMILES,inhibition at 0.1 µM [%]
1,CC1CCC(C(=O)Nc2cccc3c(=O)n(CCN(C)C)ccc23)CC1 (stereo not drawn) [Compound 1034],26 to 50
2,O=C(Nc1cccc2c(=O)n(CC3CCOCC3)ccc12)c1ccc(-c2ccccc2)o1 [Compound 1026],26 to 50

# Same assay, conditions: 0.1 μM compound; differentiated THP-1 cells, BzATP 250 uM; symbols * to ****; read-out: IL-1β % Inhib. (asterisk symbols: at 0.1 μM)
row,SMILES,inhibition at 0.1 µM [%]
1,COc1ccccc1CCC(=O)Nc1cccc2c(=O)n(Cc3cccnc3)ccc12 [Compound 1348],0 to 25

# Same assay, conditions: 0.3 μM compound; differentiated THP-1 cells, BzATP 250 uM; "+" class symbols; read-out: IL-1β % Inhib. @ 0.3 μM
row,SMILES,inhibition at 0.3 µM [%]
1,CC(C)(C)OC(=O)N1CCC[C@@H]1Cn1ccc2c(NC(=O)Cc3ccc(Cl)c(C(F)(F)F)c3)cccc2c1=O [Compound 1620],≥ 76
2,"CS(=O)(=O)CCn1ccc2c(NC(=O)Cc3ccc(Cl)c(C(F)(F)F)c3)cccc2c1=O [Compound 1630, 2-(4-Chloro-3-trifluoromethyl-phenyl)-N-[2-(2-methanesulfonyl-ethyl)-1-oxo-1,2-dihydro-isoquinolin-5-yl]acetamide]",≥ 76
3,CN(C)CCn1ccc2c(NC(=O)Cc3ccc(Cl)cc3C(F)(F)F)cccc2c1=O [Compound 1611],0 to 25

# Same assay, conditions: 0.3 μM compound; differentiated THP-1 cells, BzATP 250 uM; '+' class symbols; read-out: IL-1β % Inhib. @ 0.3 μM
row,SMILES,inhibition at 0.3 µM [%]
1,COc1ccc(CC(=O)Nc2cccc3c(=O)n(CCN(C)C)ccc23)c(OC)c1 [Compound 1022],0 to 25
2,COc1ccc(OC)c(CC(=O)Nc2cccc3c(=O)n(CCN(C)C)ccc23)c1 [Compound 1156],0 to 25
3,CCOc1ccc(C(=O)Nc2cccc3c(=O)n(CC4CCOCC4)ccc23)c(O)c1 [Compound 1025],0 to 25
4,CCOc1cccc(C(=O)Nc2cccc3c(=O)n(CCN4CCOCC4)ccc23)c1 [Compound 1044],0 to 25
5,COc1ccc(C(=O)Nc2cccc3c(=O)n(Cc4cccnc4)ccc23)cc1Cl [Compound 1078],0 to 25
6,COc1cc(OC)cc(C(=O)Nc2cccc3c(=O)n(CC4CCOCC4)ccc23)c1 [Compound 1089],0 to 25
7,COc1cccc(CCC(=O)Nc2cccc3c(=O)n(CC4CCOCC4)ccc23)c1 [Compound 1027],0 to 25
8,CCOc1ccc(C(=O)Nc2cccc3c(=O)n(Cc4cccnc4)ccc23)c(O)c1 [Compound 1072],0 to 25
9,Cc1cc(C)cc(CC(=O)Nc2cccc3c(=O)n(CC4CCOCC4)ccc23)c1 [Compound 1121],0 to 25
10,Cc1cc(C)c(CC(=O)Nc2cccc3c(=O)n(Cc4cccnc4)ccc23)c(C)c1 [Compound 1076],0 to 25
11,"CN(C)CCn1ccc2c(NC(=O)c3ccccc3)cccc2c1=O [Compound 1006, N-[2-(2-Dimethylamino-ethyl)-1-oxo-1,2-dihydro-isoquinolin-5-yl]-benzamide]",0 to 25
12,COc1cccc(CCC(=O)Nc2cccc3c(=O)n(Cc4cccnc4)ccc23)c1 [Compound 1075],0 to 25
13,COc1cccc(CCC(=O)Nc2cccc3c(=O)n(CC(C)(C)C)ccc23)c1 [Compound 1049],0 to 25
14,COc1ccc(CCC(=O)Nc2cccc3c(=O)n(CCN(C)C)ccc23)cc1 [Compound 1150],0 to 25
15,CCOc1cccc(C(=O)Nc2cccc3c(=O)n(CCOC)ccc23)c1 [Compound 1068],0 to 25

# Same assay, conditions: 0.3 μM compound; differentiated THP-1 cells, BzATP 250 uM; symbols + to ++++; read-out: IL-1β % Inhib. @ 0.3 μM
row,SMILES,inhibition at 0.3 µM [%]
1,COc1ccccc1CC(=O)Nc1cccc2c(=O)n(Cc3cccnc3)ccc12 [Compound 1351],0 to 25
2,Cc1ccc(CC(=O)Nc2cccc3c(=O)n(Cc4cccnc4)ccc23)cc1 [Compound 1356],0 to 25
3,COc1ccc(CC(=O)Nc2cccc3c(=O)n(CC(C)(C)C)ccc23)c(OC)c1 [Compound 1278],0 to 25
4,O=C(Nc1cccc2c(=O)n(Cc3cccnc3)ccc12)c1ccc2c(c1)OCCCO2 [Compound 1364],0 to 25
5,COCCn1ccc2c(NC(=O)[C@@]34C[C@@H]5C[C@@H](C[C@@H]3C5)C4)cccc2c1=O [Compound 1327],0 to 25
6,COCCn1ccc2c(NC(=O)c3ccc(Cl)cc3C)cccc2c1=O [Compound 1325],26 to 50
7,Cc1cc(C)cc(CC(=O)Nc2cccc3c(=O)n(CC(C)(C)C)ccc23)c1 [Compound 1276],0 to 25
8,Cc1cccc(C(=O)Nc2cccc3c(=O)n(C)ccc23)c1C [Compound 1289],0 to 25
9,COc1cc(CC(=O)Nc2cccc3c(=O)n(CCN4CCOCC4)ccc23)cc(OC)c1 [Compound 1218],26 to 50
10,COc1ccc(OC)c(CC(=O)Nc2cccc3c(=O)n(Cc4cccnc4)ccc23)c1 [Compound 1352],0 to 25
11,Cc1ccc(Cl)cc1C(=O)Nc1cccc2c(=O)n(CCN3CCOCC3)ccc12 [Compound 1236],0 to 25
12,CCOc1ccc(C(=O)Nc2cccc3c(=O)n(C)ccc23)cc1 [Compound 1291],0 to 25
13,CC(C)(C)Cn1ccc2c(NC(=O)c3cc4ccccc4o3)cccc2c1=O [Compound 1264],0 to 25
14,Cn1ccc2c(NC(=O)c3cc4cc(Cl)ccc4o3)cccc2c1=O [Compound 1308],0 to 25
15,Cn1ccc2c(NC(=O)c3cccc4c3OCCO4)cccc2c1=O [Compound 1304],0 to 25
16,Cc1ccccc1CC(=O)Nc1cccc2c(=O)n(CC(C)(C)C)ccc12 [Compound 1256],0 to 25
17,COCCn1ccc2c(NC(=O)CC3CC4CC[C@H]3C4)cccc2c1=O (stereo partly drawn) [Compound 1326],≥ 76
18,CN(C)CCn1ccc2c(NC(=O)Cc3ccc(Cl)c(C(F)(F)F)c3)cccc2c1=O [Compound 1385],≥ 76

# Same assay, conditions: THP-1; read-out: IL-1β % Inhib.
row,SMILES,inhibition [%]
1,COc1ccc(C(=O)Nc2cccc3c(=O)n(CCN(C)C)ccc23)cc1Cl [Compound 1402],0 to 25
2,CC(C)(C)Cn1ccc2c(NC(=O)c3ccc(C(C)(C)C)cc3)cccc2c1=O [Compound 1416],0 to 25
3,Cc1ccccc1CCC(=O)Nc1cccc2c(=O)n(Cc3cccnc3)ccc12 [Compound 1406],0 to 25
4,Cc1ccc(CC(=O)Nc2cccc3c(=O)n(Cc4ccc(OC(F)(F)F)cc4)ccc23)cc1 [Compound 1585],0 to 25
5,O=C(Nc1cccc2c(=O)n(Cc3cccnc3)ccc12)c1cc(Cl)ccc1Cl [Compound 1442],0 to 25
6,O=C(Cc1csc2ccccc12)Nc1cccc2c(=O)n(Cc3ccc(OC(F)(F)F)cc3)ccc12 [Compound 1597],0 to 25
7,Cc1ccc(CC(=O)Nc2cccc3c(=O)n(C)ccc23)cc1 [Compound 1423],0 to 25
8,COCCn1ccc2c(NC(=O)Cc3ccccc3OC)cccc2c1=O [Compound 1437],0 to 25
9,COc1ccc(CC(=O)Nc2cccc3c(=O)n(CCCN4CCCC4=O)ccc23)cc1OC [Compound 1520],0 to 25
10,COc1ccc(C(=O)Nc2cccc3c(=O)n(Cc4ccc(OC(F)(F)F)cc4)ccc23)cc1Cl [Compound 1555],0 to 25
11,CN1CCC(Cn2ccc3c(NC(=O)c4ccc5c(c4)OCCCO5)cccc3c2=O)CC1 [Compound 1480],0 to 25
12,Cc1ccc(Cl)c(C(=O)Nc2cccc3c(=O)n(CCCN4CCCC4=O)ccc23)c1 [Compound 1540],0 to 25
13,Cc1ccc(C)c(C(=O)Nc2cccc3c(=O)n(CC4CCN(C)CC4)ccc23)c1 [Compound 1463],0 to 25
14,Cc1ccc(C)c(C(=O)Nc2cccc3c(=O)n(CC(C)(C)C)ccc23)c1 [Compound 1414],0 to 25
15,COc1ccc(OC)c(CC(=O)Nc2cccc3c(=O)n(CC4CCN(C)CC4)ccc23)c1 [Compound 1472],0 to 25
16,COc1ccc(C(=O)Nc2cccc3c(=O)n(CC4CCN(C)CC4)ccc23)c(C)c1 [Compound 1456],0 to 25
17,O=C(Nc1cccc2c(=O)n(CCCN3CCCC3=O)ccc12)c1cc2ccccc2o1 [Compound 1526],0 to 25
18,COCCn1ccc2c(NC(=O)c3cc(C)ccc3Cl)cccc2c1=O [Compound 1440],0 to 25
19,O=C(Nc1cccc2c(=O)n(CCCN3CCCC3=O)ccc12)c1cc2cc(Cl)ccc2o1 [Compound 1543],0 to 25

# Same assay, conditions: THP-1 cells, BzATP-stimulated IL-1β release, four parameter logistic fit
row,SMILES,pIC50
1,COc1ccc(CC(=O)Nc2cccc3c(=O)n(CCN(C)C)ccc23)c(OC)c1 [Compound 1022],< 6.00
2,CC(C)(C)OC(=O)N1CCC[C@@H]1Cn1ccc2c(NC(=O)Cc3ccc(Cl)c(C(F)(F)F)c3)cccc2c1=O [Compound 1620],7.39
3,"CS(=O)(=O)CCn1ccc2c(NC(=O)Cc3ccc(Cl)c(C(F)(F)F)c3)cccc2c1=O [Compound 1630, 2-(4-Chloro-3-trifluoromethyl-phenyl)-N-[2-(2-methanesulfonyl-ethyl)-1-oxo-1,2-dihydro-isoquinolin-5-yl]acetamide]",6.96
4,CN(C)CCn1ccc2c(NC(=O)Cc3ccc(Cl)cc3C(F)(F)F)cccc2c1=O [Compound 1611],6.03
5,"CN(C)CCn1ccc2c(NC(=O)c3ccccc3)cccc2c1=O [Compound 1006, N-[2-(2-Dimethylamino-ethyl)-1-oxo-1,2-dihydro-isoquinolin-5-yl]-benzamide]",7.00
6,CN(C)CCn1ccc2c(NC(=O)Cc3ccc(Cl)c(C(F)(F)F)c3)cccc2c1=O [Compound 1385],6.82

# Source: patent US8546579B2, “Bicycloheteroaryl compounds as P2X7 modulators and uses thereof” (Evotec (US) Inc., priority 2006, dated 2013)
